Results: ChEMBL document CHEMBL1201862, “PubChem BioAssay data set” (2004)
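Where inhibition never reached the appropriate level, the endpoint shown equals the highest concentration tested. Otherwise, values were interpolated linearly from a five-concentration, 48-hour dose response in 96-well plates. GI50 marks 50% less growth.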 Active and inactive are the calls of the source. Cut-off read from the data, not from the text of the source: active = GI50 up to about 1.1 µM and inactive = higher.

Assays:
Test in all cases: DTP human tumour cell line panel, 48 h
UO-31 = tested on: UO-31
RXF 631 = tested on: RXF 631
HOP-62 = tested on: HOP-62
SK-OV-3 = tested on: SK-OV-3
CAKI-1 = tested on: CAKI-1
OVCAR-8 = tested on: OVCAR-8
RXF 393 = tested on: RXF 393
HT-29 = tested on: HT-29
OVCAR-5 = tested on: OVCAR-5
HCT-15 = tested on: HCT-15
Malme-3M = tested on: Malme-3M
TK-10 = tested on: TK-10
RPMI-8226 = tested on: RPMI-8226
ACHN = tested on: ACHN
NCI-H23 = tested on: NCI-H23
K562 = tested on: K562
UACC-257 = tested on: UACC-257
SK-MEL-5 = tested on: SK-MEL-5
M14 = tested on: M14
A549 = tested on: A549
DMS-273 = tested on: DMS-273
LOX IMVI = tested on: LOX IMVI
SN12C = tested on: SN12C
HCT-116 = tested on: HCT-116
OVCAR-3 = tested on: OVCAR-3
SF-295 = tested on: SF-295
HL-60 = tested on: HL-60
HOP-18 = tested on: HOP-18
IGROV-1 = tested on: IGROV-1
SK-MEL-28 = tested on: SK-MEL-28
SNB-78 = tested on: SNB-78
M19-MEL = tested on: M19-MEL
SW-620 = tested on: SW-620
DLD-1 = tested on: DLD-1
EKVX = tested on: EKVX
KM-20L2 = tested on: KM-20L2
CCRF-CEM = tested on: CCRF-CEM
COLO 205 = tested on: COLO 205
NCI-H460 = tested on: NCI-H460
U-251 = tested on: U-251
XF498 = tested on: XF498
MOLT-4 = tested on: MOLT-4
UACC-62 = tested on: UACC-62
OVCAR-4 = tested on: OVCAR-4
SNB-75 = tested on: SNB-75
786-0 = tested on: 786-0
SNB-19 = tested on: SNB-19
HOP-92 = tested on: HOP-92
NCI-H522 = tested on: NCI-H522
LXFL 529 = tested on: LXFL 529
SR = tested on: SR
NCI-H226 = tested on: NCI-H226
SF-539 = tested on: SF-539
KM12 = tested on: KM12
HCC 2998 = tested on: HCC 2998
DMS-114 = tested on: DMS-114
SF-268 = tested on: SF-268
A498 = tested on: A498
SK-MEL-2 = tested on: SK-MEL-2

For `COc1ccc(C2=C(Cl)c3cc(OC)c(OC)cc3C2Cl)cc1OC` (configuration not stated), which GI50 (UO-31) is on record?
The GI50 was 16.3 µM (inactive).

What about the GI50 (RXF 631) of the same molecule?
Its GI50 is 19.1 µM (inactive).

And the GI50 (HOP-62)?
The GI50 was 16.5 µM (inactive).

And the GI50 (SK-OV-3)?
The GI50 was 32.1 µM (inactive).

What about the GI50 (CAKI-1) of the same molecule?
The GI50 was 14.7 µM (inactive).

And the GI50 (OVCAR-8)?
Its GI50 is 15.4 µM (inactive).

And the GI50 (RXF 393)?
The GI50 was 14.2 µM (inactive).

What about the GI50 (HT-29) of the same molecule?
Its GI50 is 16.3 µM (inactive).

And the GI50 (OVCAR-5)?
The GI50 was 16.3 µM (inactive).

And the GI50 (HCT-15)?
Its GI50 is 18.2 µM.

And the GI50 (Malme-3M)?
Its GI50 is 19.6 µM (inactive).

And the GI50 (TK-10)?
Its GI50 is 19.4 µM (inactive).

And the GI50 (RPMI-8226)?
Its GI50 is 10.2 µM (inactive).

And the GI50 (ACHN)?
Its GI50 is 16.6 µM (inactive).

What about the GI50 (NCI-H23) of the same molecule?
The GI50 was 15.9 µM (inactive).

What about the GI50 (K562) of the same molecule?
Its GI50 is 10.8 µM (inactive).

What about the GI50 (UACC-257) of the same molecule?
The GI50 was 17.8 µM (inactive).

What about the GI50 (SK-MEL-5) of the same molecule?
Its GI50 is 14.6 µM (inactive).

What about the GI50 (M14) of the same molecule?
The GI50 was 17.7 µM (inactive).

What about the GI50 (A549) of the same molecule?
Its GI50 is 19.5 µM (inactive).

And the GI50 (DMS-273)?
The GI50 was 14.3 µM (inactive).

What about the GI50 (LOX IMVI) of the same molecule?
The GI50 was 14.9 µM (inactive).

What about the GI50 (SN12C) of the same molecule?
Its GI50 is 17.9 µM (inactive).

And the GI50 (HCT-116)?
The GI50 was 15.2 µM (inactive).

What about the GI50 (OVCAR-3) of the same molecule?
The GI50 was 15.1 µM (inactive).

And the GI50 (SF-295)?
The GI50 was 18.3 µM (inactive).

And the GI50 (HL-60)?
The GI50 was 13.7 µM (inactive).

And the GI50 (HOP-18)?
The GI50 was 21.7 µM (inactive).

What about the GI50 (IGROV-1) of the same molecule?
Its GI50 is 20.9 µM (inactive).

What about the GI50 (SK-MEL-28) of the same molecule?
The GI50 was 17 µM (inactive).

And the GI50 (SNB-78)?
Its GI50 is 20.7 µM (inactive).

What about the GI50 (M19-MEL) of the same molecule?
Its GI50 is 17.3 µM (inactive).

And the GI50 (SW-620)?
Its GI50 is 15.2 µM (inactive).

And the GI50 (DLD-1)?
The GI50 was 15.3 µM (inactive).

And the GI50 (EKVX)?
Its GI50 is 22.2 µM (inactive).

What about the GI50 (KM-20L2) of the same molecule?
The GI50 was 15.6 µM (inactive).

And the GI50 (CCRF-CEM)?
The GI50 was 4.32 µM (inactive).

What about the GI50 (COLO 205) of the same molecule?
Its GI50 is 18.3 µM (inactive).

What about the GI50 (NCI-H460) of the same molecule?
Its GI50 is 16.5 µM (inactive).

What about the GI50 (U-251) of the same molecule?
The GI50 was 15.4 µM (inactive).

And the GI50 (XF498)?
Its GI50 is 16 µM (inactive).

What about the GI50 (MOLT-4) of the same molecule?
Its GI50 is 3.82 µM (inactive).

And the GI50 (UACC-62)?
Its GI50 is 15.4 µM (inactive).

And the GI50 (OVCAR-4)?
The GI50 was 18.2 µM (inactive).

And the GI50 (SNB-75)?
The GI50 was 13.6 µM (inactive).

What about the GI50 (786-0) of the same molecule?
Its GI50 is 19.1 µM (inactive).

What about the GI50 (SNB-19) of the same molecule?
The GI50 was 15.9 µM (inactive).

And the GI50 (HOP-92)?
The GI50 was 24.8 µM (inactive).

What does the source list for `CCOC(=O)C(C[Si](C)(C)C)P(=O)(OCC)OCC` (configuration not stated)?
GI50 (UO-31): > 100 µM (inactive); GI50 (RXF 631): > 100 µM (inactive); GI50 (NCI-H522): > 100 µM (inactive); GI50 (HOP-62): > 100 µM (inactive); GI50 (SK-OV-3): > 100 µM (inactive); GI50 (CAKI-1): > 100 µM (inactive); GI50 (OVCAR-8): > 100 µM (inactive); GI50 (RXF 393): > 100 µM (inactive); GI50 (HT-29): > 100 µM (inactive); GI50 (LXFL 529): > 100 µM (inactive); GI50 (OVCAR-5): > 100 µM (inactive); GI50 (HCT-15): > 100 µM; GI50 (Malme-3M): > 100 µM (inactive); GI50 (TK-10): > 100 µM (inactive); GI50 (RPMI-8226): > 100 µM (inactive); GI50 (ACHN): > 100 µM (inactive); GI50 (NCI-H23): > 100 µM (inactive); GI50 (SR): > 100 µM (inactive); GI50 (K562): > 100 µM (inactive); GI50 (UACC-257): > 100 µM (inactive); GI50 (SK-MEL-5): > 100 µM (inactive); GI50 (NCI-H226): > 100 µM (inactive); GI50 (M14): > 100 µM (inactive); GI50 (A549): > 100 µM (inactive); GI50 (DMS-273): > 100 µM (inactive); GI50 (LOX IMVI): > 100 µM (inactive); GI50 (SN12C): > 100 µM (inactive); GI50 (HCT-116): > 100 µM (inactive); GI50 (OVCAR-3): > 100 µM (inactive); GI50 (SF-295): > 100 µM (inactive); GI50 (HL-60): > 100 µM (inactive); GI50 (IGROV-1): > 100 µM (inactive); GI50 (SK-MEL-28): > 100 µM (inactive); GI50 (SF-539): > 100 µM (inactive); GI50 (SNB-78): > 100 µM (inactive); GI50 (M19-MEL): > 100 µM (inactive); GI50 (SW-620): > 100 µM (inactive); GI50 (DLD-1): > 100 µM (inactive); GI50 (KM-20L2): > 100 µM (inactive); GI50 (CCRF-CEM): > 100 µM (inactive); GI50 (COLO 205): > 100 µM (inactive); GI50 (NCI-H460): > 100 µM (inactive); GI50 (U-251): > 100 µM (inactive); GI50 (XF498): > 100 µM (inactive); GI50 (MOLT-4): > 100 µM (inactive); GI50 (KM12): > 100 µM (inactive); GI50 (UACC-62): > 100 µM (inactive); GI50 (OVCAR-4): > 100 µM (inactive); GI50 (SNB-75): 38.5 µM (inactive); GI50 (786-0): > 100 µM (inactive); GI50 (HCC 2998): > 100 µM (inactive); GI50 (DMS-114): > 100 µM (inactive); GI50 (HOP-92): > 100 µM (inactive); GI50 (SF-268): > 100 µM (inactive)

Which results are given for `CC(C)(C)C(=O)N1C(C(=O)O)Cc2ccccc2[C@@H]1Cc1ccccc1` (some centres not stated)?
GI50 (RXF 631): > 100 µM (inactive); GI50 (NCI-H522): > 100 µM (inactive); GI50 (HOP-62): > 100 µM (inactive); GI50 (SK-OV-3): > 100 µM (inactive); GI50 (CAKI-1): > 100 µM (inactive); GI50 (OVCAR-8): > 100 µM (inactive); GI50 (RXF 393): > 100 µM (inactive); GI50 (HT-29): > 100 µM (inactive); GI50 (LXFL 529): > 100 µM (inactive); GI50 (OVCAR-5): > 100 µM (inactive); GI50 (HCT-15): > 100 µM; GI50 (Malme-3M): > 100 µM (inactive); GI50 (TK-10): > 100 µM (inactive); GI50 (RPMI-8226): > 100 µM (inactive); GI50 (ACHN): > 100 µM (inactive); GI50 (NCI-H23): > 100 µM (inactive); GI50 (K562): > 100 µM (inactive); GI50 (UACC-257): > 100 µM (inactive); GI50 (SK-MEL-5): > 100 µM (inactive); GI50 (NCI-H226): 45.6 µM (inactive); GI50 (M14): > 100 µM (inactive); GI50 (A549): > 100 µM (inactive); GI50 (DMS-273): > 100 µM (inactive); GI50 (SN12C): > 100 µM (inactive); GI50 (HCT-116): > 100 µM (inactive); GI50 (OVCAR-3): > 100 µM (inactive); GI50 (SF-295): > 100 µM (inactive); GI50 (HL-60): > 100 µM (inactive); GI50 (HOP-18): > 100 µM (inactive); GI50 (IGROV-1): > 100 µM (inactive); GI50 (SK-MEL-28): > 100 µM (inactive); GI50 (SF-539): > 100 µM (inactive); GI50 (SNB-78): > 100 µM (inactive); GI50 (M19-MEL): > 100 µM (inactive); GI50 (SW-620): > 100 µM (inactive); GI50 (EKVX): > 100 µM (inactive); GI50 (KM-20L2): > 100 µM (inactive); GI50 (CCRF-CEM): > 100 µM (inactive); GI50 (A498): > 100 µM (inactive); GI50 (COLO 205): > 100 µM (inactive); GI50 (NCI-H460): > 100 µM (inactive); GI50 (U-251): > 100 µM (inactive); GI50 (XF498): > 100 µM (inactive); GI50 (MOLT-4): > 100 µM (inactive); GI50 (KM12): > 100 µM (inactive); GI50 (UACC-62): > 100 µM (inactive); GI50 (OVCAR-4): > 100 µM (inactive); GI50 (SNB-75): > 100 µM (inactive); GI50 (786-0): > 100 µM (inactive); GI50 (HCC 2998): > 100 µM (inactive); GI50 (DMS-114): > 100 µM (inactive); GI50 (SNB-19): > 100 µM (inactive); GI50 (HOP-92): > 100 µM (inactive); GI50 (SF-268): > 100 µM (inactive); GI50 (SK-MEL-2): > 100 µM (inactive)
